In patent US20140357512A1, “HISTONE DEACETYLASE (HDAC) BIOMARKERS IN MULTIPLE MYELOMA” (priority 2013, published 2014):

Tested on: human myeloma cell line MM.1S
Experiment: SILAC acetylated-lysine peptide profiling, HDAC inhibitor vs DMSO (light/heavy ratio)
Type: cell-based
Description: An embodiment of the invention comprises utilizing the SILAC method in order to quantitate changes in protein expression between two or more populations of cells. The SILAC method is a technique based on mass spectrometry that detects differences in protein abundance among samples using non-radioactive isotopic labeling. The SILAC method is known in the art, and described in detail in Ong et al., “Stable Isotope Labeling by Amino Acids in Cell Culture, SILAC, as a Simple and Accurate Approach to Expression Proteomics”, Molecular & Cellular Proteomics, vol. 1, pp. 376-386 (2002), which is incorporated herein by reference in its entirety.
Briefly, the SILAC method involves growing two populations of cells in cell culture. The first population of cells is grown in growth media containing normal amino acids (“normal media”). The second population of cells is grown in media lacking a standard essential amino acid (such as lysine), but is then supplemented with a non-radioactive, isotopically labeled form of that essential amino acid (such as lysine labeled with ^13C atoms, rather than normal ^12C atoms), which is called “heavy media”. When the two populations of cells are each growing in the medium, they incorporate the amino acids into all of their proteins. The growth of cells maintained in the heavy media is no different from that in normal media. All peptides containing the heavy amino acids are heavier than their normal counterparts. The cells from each of the two populations of cells are lysed. The lysates from each of the two cell populations are then combined. The combined cell lysates are then analyzed by mass spectrometry. Pairs of chemically identical peptides of different stable isotope composition can be differentiated in a mass spectrometer due to their difference in mass. The ratio of peak intensities in the mass spectrum for such peptide pairs reflects the abundance ratio for the two proteins.
This example describes SILAC studies that were performed to compare the effects of three different HDAC inhibitors (Compound A, Compound B, and tubastatin A) to a control on a human multiple myeloma cell line. The HDAC inhibitors were also compared amongst themselves to determine differences in their effects.
A human myeloma cell line MM.1S was grown using either ^12C (light) or ^13C (heavy) lysine containing culture medium. The “heavy” cells were treated with DMSO as the control, and the “light” cells were treated with a single HDAC inhibitor at 37° C. for 6 hours. The heavy and light cells were lysed, and the lysates were mixed in 1:1 ratio and digested with the protease trypsin. The acetylated lysine containing peptides (due to the action of the HDAC inhibitor) in the digested peptide pool were captured by a non-specific anti-acetylated lysine antibody cocktail (the antibodies identify both light and heavy acetylated peptides), and subjected to mass spectrometry analysis in order to identify thousands of individual peptides.
Thousands of peptides were identified in pairs (^12C and ^13C) due to their known mass differences. The amino acid sequence and quantitative ratio (Light/Heavy) of a given peptide in two differentially treated cell lysates were then determined and annotated with their possible protein (gene) sources.
As stated above, three HDAC inhibitors (Compound A, Compound B, and Tubastatin A) were used. Thus, the SILAC method was performed three times, with a different HDAC inhibitor compared to a control each time. Accordingly, there are three pairs of quantitative data in the table below, i.e., Compound A:DMSO, Compound B:DMSO, and Tubastatin A:DMSO. A cut-off of 1.30 fold of change (increase or decrease) was then used to determine “changed” or “+” in the table, and any peptides with a fold of change less than 1.3 fold were determined to be “unchanged” or “0” in the table. Those peptides that were not identified were marked as “NA” in the table. […]

O=C(NO)c1cnc(NC2(c3cccc(F)c3)CCCCC2)nc1 [Compound B, 2-((1-(3-fluorophenyl)cyclohexyl)amino)-N-hydroxypyrimidine-5-carboxamide]
light to heavy ratio (L/H ratio) of acetylated peptide TACAINK(ac)VLMGR (SEQ ID NO: 584) (Isoform 1 of Protein FAM98A [297], gene FAM98A, inhibitor:DMSO): 0.00 log 2
light to heavy ratio (L/H ratio) of acetylated peptide VLSK(ac)[…] (SEQ ID NO: 294) (Isoform 1 of Protein SET [154], SET, drug:DMSO): 0.00 log 2
light to heavy ratio (L/H ratio) of acetylated peptide […](ac)ALK (SEQ ID NO: 349) (Isoform 1 of RNA-binding protein with serine-rich domain 1 [218], RNPS1, drug:DMSO): −0.46 log 2
light to heavy ratio (L/H ratio), log 2 scale, acetylated peptide […](ac)TDQAQDVK (SEQ ID NO: 765) (Isoform 1 of Signal recognition particle 9 kDa protein [52], gene SRP9, drug:DMSO): 0.00
light to heavy ratio (L/H ratio) of acetylated peptide VLISFK(ac)ANDIEK (SEQ ID NO: 363) (Isoform 2 of Actin-related protein 2/3 complex subunit 5 [90], ARPC5, drug:DMSO): 0.42 log 2
light to heavy ratio (L/H ratio) of acetylated peptide TMSCSDK(ac)ILR (SEQ ID NO: 323) (Isoform 2 of Double-stranded RNA-specific adenosine deaminase [1013], ADAR, drug:DMSO): −0.65 log 2
light to heavy ratio (L/H ratio) of acetylated peptide […](ac)[…] (SEQ ID NO: 336) (Isoform 2 of Fibronectin type-III domain-containing protein 3A [507], FNDC3A, drug:DMSO): 0.40 log 2
light to heavy ratio (L/H ratio) of acetylated peptide K(ac)[…] (SEQ ID NO: 369) (Isoform 2 of Huntingtin-interacting protein K [35], C15orf63, drug:DMSO): 1.00 log 2
light to heavy ratio (L/H ratio) of acetylated peptide GAK(ac)PVVVLQK (SEQ ID NO: 611) (Isoform 2 of Nipped-B-like protein [1000], gene NIPBL, inhibitor:DMSO): 0.00 log 2
light to heavy ratio (L/H ratio) of acetylated peptide LIAGNK(ac)[…] (SEQ ID NO: 512) (Isoform 2 of Nuclear factor related to kappa-B-binding protein [1262], gene NFRKB, inhibitor:DMSO): 0.00 log 2
light to heavy ratio (L/H ratio) of acetylated peptide […](ac)K (SEQ ID NO: 626) (Isoform 2 of Septin-7 [207], gene, inhibitor:DMSO): 0.00 log 2
light to heavy ratio (L/H ratio) of acetylated peptide YQQFK(ac)DFQR (SEQ ID NO: 258) (Isoform 2 of Spliceosome RNA helicase DDX39B [349], SNORD84, DDX39B, drug:DMSO): 0.00 log 2
light to heavy ratio (L/H ratio) of acetylated peptide GLCEK(ac)PLASAAAK (SEQ ID NO: 536) (Isoform 2 of Transportin-3 [513], gene TNPO3, inhibitor:DMSO): 0.00 log 2
light to heavy ratio (L/H ratio), log 2 scale, acetylated peptide LEPLK(ac)PLK (SEQ ID NO: 772) (Isoform 3 of Proline-rich protein 12 [1223], gene PRR12, drug:DMSO): 0.00
light to heavy ratio (L/H ratio) of acetylated peptide […](ac)FLK (SEQ ID NO: 326) (Isoform 5 of Transcriptional regulator ATRX [812], ATRX, drug:DMSO): 0.89 log 2
light to heavy ratio (L/H ratio), log 2 scale, acetylated peptide YNDPIYVK(ac)LEK (SEQ ID NO: 764) (Isoform A of AP-1 complex subunit beta-1 [335], gene AP1B1, drug:DMSO): 0.00
light to heavy ratio (L/H ratio) of acetylated peptide MVAAAK(ac)YAR (SEQ ID NO: 324) (Isoform Heart of ATP synthase subunit gamma mitochondrial [55], ATP5C1, drug:DMSO): −0.80 log 2
light to heavy ratio (L/H ratio) of acetylated peptide VPNDK(ac)YYGAQTVR (SEQ ID NO: 625) (Isoform Mitochondrial of Fumarate hydratase mitochondrial [66], gene FH, inhibitor:DMSO): 0.00 log 2
light to heavy ratio (L/H ratio) of acetylated peptide MMVAGFK(ac)K (SEQ ID NO: 339) (Isoform Short of Heterogeneous nuclear ribonucleoprotein U [524], HNRNPU, drug:DMSO): −0.40 log 2
light to heavy ratio (L/H ratio) of acetylated peptide APQCLGK(ac)FIEIAAR (SEQ ID NO: 338) (Isoform Short of Heterogeneous nuclear ribonucleoprotein U [546], HNRNPU, drug:DMSO): 0.75 log 2
L/H ratio of acetylated peptide (K(ac)GPSVQKR (SEQ ID NO: 413), Isoform 1 of Protein lin-28 homolog B [240], LIN28B): 0.47 log 2
light to heavy ratio (L/H ratio) of acetylated peptide, log 2 scale (K(ac)[…] (SEQ ID NO: 152), Eukaryotic translation initiation factor 5A-2 [68], EIF5A2): 0.00
light to heavy ratio (L/H ratio) of acetylated peptide, log 2 scale (K(ac)[…] (SEQ ID NO: 164), Similar to nonhistone chromosomal protein HMG-1 [30], HMGB1P4): 0.00
light to heavy ratio (L/H ratio) of acetylated peptide, log 2 scale (K(ac)[…] (SEQ ID NO: 246), Endoplasmin [270], HSP90B1): 0.00
L/H ratio of acetylated peptide (K(ac)[…] (SEQ ID NO: 373), T-complex protein 1 subunit zeta [280], CCT6A): 0.67 log 2
L/H ratio of acetylated peptide (KDFIK(ac)TTVK (SEQ ID NO: 388), Protein DEK [367], DEK): 0.38 log 2
L/H ratio of acetylated peptide (KK(ac)FLCVTK (SEQ ID NO: 411), Kelch repeat and BTB domain-containing protein 8 [178], KBTBD8): 1.00 log 2
light to heavy ratio (L/H ratio) of acetylated peptide, log 2 scale (KLPK(ac)[…] (SEQ ID NO: 198), Ras-related protein Rab-5C [184], RAB5C): 0.00
L/H ratio of acetylated peptide (KPEENPASK(ac)FSSASK (SEQ ID NO: 391), Eukaryotic translation initiation factor 4B [586], EIF4B): 0.53 log 2
L/H ratio of acetylated peptide (KSEDTISK(ac)MNDFMR (SEQ ID NO: 409), Isoform 1 of Gamma-interferon-inducible protein 16 [451], IFI16): −0.57 log 2
light to heavy ratio (L/H ratio) of acetylated peptide, log 2 scale (KTPCGEGSK(ac)TWDR (SEQ ID NO: 245), 40S ribosomal protein S20 [75], SNORD54, RPS20): 0.00
light to heavy ratio (L/H ratio) of acetylated peptide IVADK(ac)DYSVTANSK (SEQ ID NO: 317) (L-lactate dehydrogenase B chain [82], LDHB, drug:DMSO): 0.00 log 2
L/H ratio of acetylated peptide (LCK(ac)YIYAK (SEQ ID NO: 390), Eukaryotic translation initiation factor 3 subunit C [553], EIF3C, EIF3CL): 0.45 log 2
